Reference: US20080004561A1, “Method for Treating Oncological, Virulent and Somatic Diseases, Method for Controlling Treatment Efficiency, Pharmaceutical Agents and Composition for Carrying Out Said Treatment” (priority 2005, published 2008)
Entries after “also recorded” stand apart in the source; their conditions may differ.

Assays:
Erlich carcinoma [1] = experiment: Influence of DNase administrated twice a day on Erlich tumor growth at mice (Example 1); assay type: in vivo; conditions: day 3 to 7, 7 day after transplantation
Method: (§1) Bovine pancreatic DNase I (Fermentas) and human recombinant DNase I (Dornase; Gentech) were used. DNase I solution for injections were prepared by dissolving of DNase matrix solution in sterile phosphate buffer directly before administration. Cyclophosphamide and Doxorubicin were dissolved according to instruction.
(§2) Blood plasma DNA of tumor-bearing mice was received according to technique described above. Highly metastatic and low metastatic stains of mice' Luice lung carcinoma and Erlich carcinoma were used. Cells were cultivated in RPMI-1640 media with adding of 10% embryonic calf serum, 1% penicillin—streptomycin in 5% carbon dioxide atmosphere. For tumor induction in mice, cells were cultivated until the monolayer, than were detached with trypsin-EDTA solution. Cells were washed trice by centrifuging in phosphate buffer and were resuspensed until their concentration have become 0.5×10^7/ml. Viability was defined by inclusion of methylene blue in hemocytometer. Suspensions that contained 95% of viable cells were used for administration to animals.
(§3) Mice of C57B1 line and white not thoroughbred mice from “Rappolovo” animal house were used. Weight of animals was 24-26 grams. Animals were contained in cages, for 6-7 mice per one cage on a standard diet without water restriction. LLC cells in dose of 5×10^5 in 100 mkl of phosphate buffer were injected in soft tissues of thigh. Erlich tumor was subcutaneously replanted on the right side by injection of 0.2 ml 10% cells' suspension in isotonic sodium chloride solution.
Influence of DNase I Administrated Twice a Day on Erlich Tumor Growth at Mice
(§4) Group 1—10 mice transplanted with Erlich carcinoma (control).
(§5) Group 2—10 mice transplanted with Erlich carcinoma. Mice were intraperitoneally injected with DNase at 1 mg/kg dose in […] of phosphate buffer twice a day starting from 3 up to 7 day after tumor transplantation.
Group 3—10 mice transplanted with Erlich carcinoma. Mice were intraperitoneally injected with DNase at 2 mg/kg dose in […] of phosphate buffer twice a day starting from 3 up to 7 day after tumor transplantation.

Erlich carcinoma [2] = experiment: Inhibition of Erlich tumor growth by different schemes of DNase administration (Example 2); assay type: in vivo, mice; conditions: day 3 to 7, 7 day after transplantation
Method: as §1, §2, §3
In our experiments DNA circulating in blood plasma of patients was the therapeutic target of DNase. Prolonged presence of DNase in blood plasma at catalytically effective concentrations is essential for provision of maximal therapeutic effect.
as §4, §5
Group 3—10 mice transplanted with Erlich carcinoma. Mice were intraperitoneally injected with DNase at 0.5 mg/kg dose in […] of phosphate buffer four times a day starting from 3 up to 7 day after tumor transplantation.

Erlich carcinoma [3] = experiment: Combined use of DNase and Doxorubicin, Erlich tumor growth (Example 3); assay type: in vivo, mice; conditions: Doxorubicin 2 mg/kg intravenously once a day and/or DNase 0.5 mg/kg intraperitoneally four times a day, day 3 to 7; 7th day after transplantation
Method: Bovine pancreatic DNase I (Fermentas) and human recombinant DNase […]) were used. DNase I solution for injections were prepared by dissolving of DNase matrix solution in sterile phosphate buffer directly before administration. […] Blood plasma DNA of tumor-bearing mice was received according to technique described above. Highly metastatic and low metastatic stains of mice' Luice lung carcinoma and Erlich carcinoma were used. […] For tumor induction in mice, cells were cultivated until the monolayer, than were detached with trypsin-EDTA solution. Cells were washed trice by centrifuging in phosphate buffer and were resuspensed until their concentration have become 0.5×10^7/ml. Viability was defined by inclusion of methylene blue in hemocytometer. […] Mice of C57B1 line and white not thoroughbred mice from “Rappolovo” animal house were used. Weight of animals was 24-26 grams. Animals were contained in cages, for 6-7 mice per one cage on a standard diet without water restriction. LLC cells in dose of 5×10^5 in 100 mkl of phosphate buffer were injected in soft tissues of thigh. […] Group 1-10 mice transplanted with Erlich carcinoma (control). Group 2-10 mice replanted with Erlich carcinoma. […] Group 3-10 mice replanted with Erlich carcinoma. […] Group 4-10 mice replanted with Erlich carcinoma. […] Results of experiments were estimated according to tumor's growth inhibition (TGI) that were expressed in percents to control data received at last day of DNase injection with standard formula using.

[4] = system: Escherichia coli ATCC25922; experiment: Influence of DNase on bacterial biofilm formation on glass (Example 4); assay type: cell-based
Method: (§6) For estimation of possible mechanisms of DNase action on bacteria' interactions with host's organism we have estimated its influence on biofilm formation.
(§7) Experiments were performed on biofilm models, received at laboratory cultivation on the surface of glass. Non-relative Gram-positive (Staphylococcus aureus VT-209) and Gram-negative (Escherichia coli ATCC25922) bacteria were used.
(§8) Bacteria were sowed at 10^9 bacteria/ml concentrations and were incubated at 37° C. during 72 hours on synthetic M9 media that contains additives necessary for used bacteria strains. DNase was added in amount of 100 mkg/ml right after bacteria' inoculation. Identical volume of phosphate buffer was added to control. Selective vials were taken for analysis every 24 hours.
(§9) Glasses were washed by PBS buffer, fixed, stained with methylene blue and studied with the use of light microscopy.

[5] = system: Staphylococcus aureus VT-209; experiment: as above; assay type: cell-based
Method: as §6, §7, §8, §9

[6] = system: DNA from biofilm matrix of Escherichia coli; experiment: DNAase I processing of DNA from biofilm matrix, electrophoresis (Example 12); assay type: biochemical; conditions: DNA processed for 3 hours by DNAase I at 37° C.
Excerpt: (§10) Biofilms of Escherichia coli and Staphylococcus aureus were used in experiments. Biofilms were washed off by phosphate buffer from agar. Cells and matrix were separated by centrifuging. Standard phenol-chloroform method was used for DNA extraction from matrix. DNA amount was estimated by spectrophotometric analysis with wave's length 260 nm (SF-46). Received DNA was researched by electrophoresis in 0.8% […] gel with ethidium bromide staining.
(§11) One part of received DNA was processed for 3 hours by DNAase I at 37° C. After electrophoretic separation of processed and not processed DNA it was found out that: […]

[7] = system: DNA from biofilm matrix of Staphylococcus aureus; experiment: as above; assay type: biochemical; conditions: DNA processed for 3 hours by DNAase I at 37° C.
Excerpt: as §10, §11

tumor cells = experiment: In vitro effect of DNase I on tumor cells' growth; assay type: cell-based; conditions: DNase I concentration up to 100 mkg/ml
[8] = DNase 1 mg/kg intraperitoneally twice a day
[9] = DNase 2 mg/kg intraperitoneally twice a day
[10] = DNase 0.5 mg/kg intraperitoneally four times a day
[11] = DNase 100 mkg/ml added right after inoculation, 37° C., 72 hours, M9 media, light microscopy
[12] = DNase 100 mkg/ml, control sowings from vials

DNase
TGI % (Erlich carcinoma [1]; [8]): 61%
Tumor's volume (Erlich carcinoma [1]; [8]): 33 +/− 6
TGI % (Erlich carcinoma [1]; [9]): 60%
Tumor's volume (Erlich carcinoma [1]; [9]): 34 +/− 7
T% (tumor's growth inhibition) (Erlich carcinoma [2]; [10]): 76%
Tumor's volume (Erlich carcinoma [2]; [10]): 23 +/− 6
T% (tumor's growth inhibition) (Erlich carcinoma [2]; [8]): 67%
Tumor's volume (Erlich carcinoma [2]; [8]): 32 +/− 6
T% (tumor's growth inhibition) (Erlich carcinoma [3]): 78%
Tumor's volume (Erlich carcinoma [3]): 20 +/− 6
Biofilm formation [4, 11]: normal biofilm was not formed
Colony-forming units (CFU) in comparison with controls [4, 12]: no death of cells
Biofilm formation [5, 11]: normal biofilm was not formed
Colony-forming units (CFU) in comparison with controls [5, 12]: no death of cells
DNA band after electrophoresis [6]: disappeared completely
DNA band after electrophoresis [7]: disappeared completely
Effect on tumor cells' growth in vitro (tumor cells): does not cause direct cytotoxic effect; also recorded: not seen any suppressive effect
